Earlier results in PMC9881854 (bioRxiv, 2023).

Test system: mTOR

binding of rapamycin by itself to mTOR: weak micromolar binder
SMILES: CO[C@H]1C[C@@H]2CC[C@@H](C)[C@@](O)(O2)C(=O)C(=O)N2CCCC[C@H]2C(=O)O[C@H]([C@H](C)C[C@@H]2CC[C@@H](O)[C@H](OC)C2)CC(=O)[C@H](C)/C=C(\C)[C@@H](O)[C@@H](OC)C(=O)[C@H](C)C[C@H](C)/C=C/C=C/C=C/1C [rapamycin]
